Read-outs that look alike come from different tables or passages of the source.
What was measured:
[1] = Stability of the tablet produced according to Example 5 (impurity content on storage); assay type: physicochemical; settings: tablet of Example 5, four days at 70° C., 100 percent relative humidity
Procedure: As used herein, the term “stable” with reference to candesartan cilexetil relates to candesartan cilexetil having about 0.01% to about 0.5% of desethyl-candesartan (“desethyl-CNS”) impurity present in the total weight of the composition, after storage for four days at a temperature of 65° C. and a relative humidity of 100 percent; and/or having about 0.01% to about 0.5% of 2-N-ethyl candesartan (“2-N-ethyl CNS”) impurity present in the total weight of the composition, after storage for four days at a temperature of 65° C. and a relative humidity of 100 percent; and/or having about 0.01% to about 0.2% of impurities other than desethyl-CNS and 2-N-ethyl CNS present in the total weight of the composition, after storage for four days at a temperature of 65° C. and a relative humidity of 100 percent.

[2] = cited from earlier work

For `CCOc1nc2cccc(C(=O)OC(C)OC(=O)OC3CCCCC3)c2n1Cc1ccc(-c2ccccc2-c2nnn[nH]2)cc1` (racemic) [candesartan cilexetil, (±)-1-[[(cyclohexyloxy)carbonyl]oxy]ethyl-2-ethoxy-1-[[2′-(1H-tetrazol-5-yl)[1,1′biphenyl]-4-yl]methyl]-1H-benzimidazole-7-carboxylate], the “degradation of candesartan cilexetil when tabletted with the excipient complex (conclusion)” value [1] is given as “did not degrade significantly”, the solubility ([2]; in methanol) is given as “sparingly soluble” and the solubility ([2]; in water) is given as “sparingly soluble”.

Source: US20090018175A1, “Pharmaceutical excipient complex” (priority 2007, published 2009)
